These results are taken from patent publication US20250314641A1, “OBLIQUE LINE SCANNER SYSTEMS AND METHODS FOR HIGH THROUGHPUT SINGLE MOLECULE TRACKING IN LIVING CELLS” (EIKON THERAPEUTICS, INC., priority 2022, published 2025).

This assay has as its system Halo-PCNA labeled U2OS cells. In words: Cell cycle phase assignment by machine learning model in Halo-PCNA U2OS cells. It counts as cell-based. The following applies: 2 mM Thymidine (S-phase block) or 10 mM RO-3306 (G2-M block). The method, then:
FIGS. 20A-20F illustrate that OLS can be applied to capture the inter and intracellular heterogeneity of single protein dynamics. FIG. 20A depicts the analysis of sources of variance in SMT for KEAP1 measured under either OLS or HILO illumination. The contribution of cell to cell variation is 17-32 fold greater than that of FOV level or well to well variances, respectively. FIG. 20B depicts representative images of Halo-PCNA labeled cells treated with 2 mM Thymidine or 10 mM RO-3306 (top). Cell cycle prediction from a machine learning (ML) model used to color cell by cycle phase (bottom). FIG. 20C depicts the quantification of the fraction of cells in each cell phase in response to cycle block treatments in FIG. 20B. The following number of cells were analyzed for each condition: 34,067 for DMSO, 3,831 for RO-3306 and 6,044 for thymidine. […]
Time-lapse microscopy was conducted on Halo-PCNA labeled with 50 nM JFX650, to achieve near-saturating labeling, for 12 hours at 12 frames per hour (FIG. 21A). […] When cells in each cell phase were analyzed separately, it became apparent that the slow-moving population of PCNA was exclusively found in cell predicted to be in S-phase and that there was a marked decrease in the fast-moving population (FIG. 20E). […]
Cell cycle as provided above can be automatically determined using an image (e.g., an image of JF549-labeled PCNA). […]

For the molecule `Cc1cn([C@H]2C[C@H](O)[C@@H](CO)O2)c(=O)[nH]c1=O` [thymidine], the “fraction of cells assigned to cell cycle phases” value is listed as “expected enrichment in the fraction of cells assigned to the respective cell phases”.

Turning to `O=C1NC(=NCc2cccs2)S/C1=C\c1ccc2ncccc2c1` [RO-3306], the “fraction of cells assigned to cell cycle phases” value is reported as “expected enrichment in the fraction of cells assigned to the respective cell phases”.
